Ki, IC50 and inhibition data for eight molecules are collected here from ChEMBL document CHEMBL2169823, “cis-4-amino-L-proline residue as a scaffold for the synthesis of cyclic and linear endomorphin-2 analogues: part 2” (J Med Chem, 2012).

As a reminder, the Ki is the equilibrium dissociation constant of an inhibitor or competing ligand from its target. By IC50 is commonly meant the concentration at which inhibition is half-maximal. By inhibition is commonly meant the change of the read-out against control, counted positive when it falls.

The target in test [1] is Mu-type opioid receptor (Homo sapiens, UniProt P35372). Kind of test: Displacement of [3H]DAMGO from mu opioid receptor transfected in […] HN9.10 cells after 3 hrs by liquid scintillation counter. Type of test: cell-based. (In general: Displacement assays read how much labelled ligand stays bound in the presence of the test substance.)
For test [2], the target named is Mu-type opioid receptor (Cavia porcellus, UniProt P97266). Put plainly: Agonist activity at mu opioid receptor in Hartley guinea pig ileum longitudinal muscle myenteric plexus assessed as inhibition of electrically-induced smooth muscle contraction after 3 mins. Type of test: functional, tissue-based.
The target of test [3] is Kappa-type opioid receptor (Homo sapiens, UniProt P41145). Kind of test: Displacement of [3H]U69593 from human kappa opioid receptor expressed in CHO cells after 60 mins by liquid scintillation counter. Type of test: cell-based.
Test [4] has as its target Delta-type opioid receptor (Homo sapiens, UniProt P41143). Kind of test: Displacement of [3H]DPDPE from delta opioid receptor transfected in […] HN9.10 cells after 3 hrs by liquid scintillation counter. Type of test: cell-based.
Test [5] concerns the target Delta-type opioid receptor (Mus musculus, UniProt P32300). Kind of test: Agonist activity at delta opioid receptor in ICR mouse vas deferens assessed as inhibition of electrically-induced smooth muscle contraction after 3 mins. Type of test: functional, tissue-based.
In test [6] the target is Delta-type opioid receptor (Mus musculus) (UniProt P32300). Kind of test: Agonist activity at delta opioid receptor in ICR mouse vas deferens assessed as inhibition of electrically-induced smooth muscle contraction at 1 uM after 3 mins. It is filed as functional, tissue-based.
Test [7] deals with Mu-type opioid receptor (Cavia porcellus) (UniProt P97266). Put plainly: Agonist activity at mu opioid receptor in Hartley guinea pig ileum longitudinal muscle myenteric plexus assessed as inhibition of electrically-induced smooth muscle contraction at 1 uM after 3 mins. Type of test: functional, tissue-based.

The structures appear in SMILES notation.

Mu-type opioid receptor (Homo sapiens, UniProt P35372), sequence (P35372 whole entry): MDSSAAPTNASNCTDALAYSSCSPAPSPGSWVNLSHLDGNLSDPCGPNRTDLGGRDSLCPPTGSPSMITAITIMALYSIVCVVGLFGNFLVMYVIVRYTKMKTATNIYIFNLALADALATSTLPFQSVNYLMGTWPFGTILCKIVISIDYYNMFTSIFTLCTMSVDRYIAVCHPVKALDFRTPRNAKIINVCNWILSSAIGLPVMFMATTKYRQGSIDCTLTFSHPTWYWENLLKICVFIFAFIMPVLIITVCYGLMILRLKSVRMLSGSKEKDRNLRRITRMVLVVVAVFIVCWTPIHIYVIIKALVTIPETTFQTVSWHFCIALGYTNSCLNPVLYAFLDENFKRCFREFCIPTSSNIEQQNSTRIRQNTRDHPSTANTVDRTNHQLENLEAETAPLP
Delta-type opioid receptor (Mus musculus), sequence (P32300 whole entry): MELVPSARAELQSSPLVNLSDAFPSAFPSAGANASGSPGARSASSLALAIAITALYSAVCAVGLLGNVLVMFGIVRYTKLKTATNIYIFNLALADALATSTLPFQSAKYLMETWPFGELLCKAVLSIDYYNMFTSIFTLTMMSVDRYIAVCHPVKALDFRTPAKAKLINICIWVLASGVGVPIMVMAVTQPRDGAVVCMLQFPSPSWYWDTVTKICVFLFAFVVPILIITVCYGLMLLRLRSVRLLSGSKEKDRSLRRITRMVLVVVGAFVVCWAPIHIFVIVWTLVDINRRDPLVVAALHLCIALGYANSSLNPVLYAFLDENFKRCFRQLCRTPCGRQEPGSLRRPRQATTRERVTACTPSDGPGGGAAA
Kappa-type opioid receptor, sequence (P41145 whole entry): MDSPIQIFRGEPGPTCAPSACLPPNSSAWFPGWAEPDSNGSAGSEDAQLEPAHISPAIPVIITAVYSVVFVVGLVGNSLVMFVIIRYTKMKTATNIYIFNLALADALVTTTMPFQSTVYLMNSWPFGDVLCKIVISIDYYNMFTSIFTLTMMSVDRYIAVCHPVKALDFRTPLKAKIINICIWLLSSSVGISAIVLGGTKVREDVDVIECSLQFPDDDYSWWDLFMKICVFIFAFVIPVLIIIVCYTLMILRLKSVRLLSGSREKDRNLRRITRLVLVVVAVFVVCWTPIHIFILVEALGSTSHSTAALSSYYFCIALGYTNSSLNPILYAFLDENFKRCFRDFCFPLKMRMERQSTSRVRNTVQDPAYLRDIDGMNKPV
Delta-type opioid receptor (Homo sapiens, UniProt P41143), sequence (P41143 whole entry): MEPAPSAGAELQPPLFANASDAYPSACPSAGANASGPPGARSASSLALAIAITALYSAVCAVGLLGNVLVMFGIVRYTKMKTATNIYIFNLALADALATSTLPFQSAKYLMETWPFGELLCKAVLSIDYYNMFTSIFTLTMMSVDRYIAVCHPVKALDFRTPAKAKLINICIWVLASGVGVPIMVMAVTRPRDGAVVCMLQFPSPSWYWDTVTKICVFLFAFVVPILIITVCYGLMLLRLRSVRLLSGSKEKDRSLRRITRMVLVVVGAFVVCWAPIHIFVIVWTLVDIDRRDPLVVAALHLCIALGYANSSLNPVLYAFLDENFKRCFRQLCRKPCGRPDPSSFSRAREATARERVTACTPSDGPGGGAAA
Mu-type opioid receptor (Cavia porcellus), sequence (P97266 whole entry): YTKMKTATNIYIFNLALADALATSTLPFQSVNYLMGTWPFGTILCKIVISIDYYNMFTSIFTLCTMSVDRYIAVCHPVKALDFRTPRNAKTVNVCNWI
Mu-type opioid receptor (Cavia porcellus, UniProt P97266), sequence (P97266 whole entry): as above
Delta-type opioid receptor (Mus musculus, UniProt P32300), sequence (P32300 whole entry): as the sequence (P32300 whole entry) above

Consider `N[C@@H](Cc1ccc(O)cc1)C(=O)N1C[C@@H]2C[C@H]1C(=O)N[C@H](Cc1ccccc1)C(=O)N[C@H](Cc1ccccc1)C(=O)N2`, for which the Ki is 0.063 µM on Mu-type opioid receptor [1], greater than 10 µM in test [3] (read-out: Ki) and 1.01 µM in test [4] (read-out: Ki). The results for the IC50 (on Mu-type opioid receptor [2]; in test [5]) were 0.48 µM and 1.4 µM, respectively.
Take `Br.NC(=O)[C@@H](Cc1ccccc1)NC(=O)[C@@H](Cc1ccccc1)NC(=O)[C@@H]1C[C@H](N)CN1C(=O)[C@@H](N)Cc1ccc(O)cc1`: the Ki on Mu-type opioid receptor [1] is 3.7 µM; in test [3] (cho), “Not Active”; in test [4] it was “Not Active”. The inhibition came to 0% in test [6] and 0.9% in test [7].
Take `Br.N[C@H]1C[C@@H](C(=O)N[C@H](Cc2ccccc2)C(=O)N[C@@H](Cc2ccccc2)C(=O)O)N(C(=O)[C@@H](N)Cc2ccc(O)cc2)C1`: the values for the Ki (on Mu-type opioid receptor [1]; in test [3] (cho); in test [4]) were 1.01 µM, “Not Active” and “Not Active”, respectively. In addition, the inhibition came out at 3.6% in test [6] and 11% in test [7].
As to `Br.NC(=O)[C@H](Cc1ccccc1)NC(=O)[C@@H](Cc1ccccc1)NC(=O)[C@@H]1C[C@H](N)CN1C(=O)[C@@H](N)Cc1ccc(O)cc1`, the Ki at Mu-type opioid receptor [1] was 0.76 µM; in test [3] (cho), “Not Active”; in test [4], “Not Active”. Further, the inhibition in test [6] stood at 14%; in test [7], 12%.
As for `Br.N[C@H]1C[C@@H](C(=O)N[C@@H](Cc2ccccc2)C(=O)N[C@H](Cc2ccccc2)C(=O)O)N(C(=O)[C@@H](N)Cc2ccc(O)cc2)C1`, the Ki was 0.76 µM at Mu-type opioid receptor [1], “Not Active” in test [3] (cho) and “Not Active” in test [4]. In addition, the inhibition in test [6] amounted to 1.3%; in test [7], 3.2%.
For `Br.NC(=O)[C@@H](Cc1ccccc1)NC(=O)[C@H](Cc1ccccc1)NC(=O)[C@@H]1C[C@H](N)CN1C(=O)[C@@H](N)Cc1ccc(O)cc1`, the Ki at Mu-type opioid receptor [1] was greater than 10 µM; in test [3] (cho), “Not Active”; in test [4], “Not Active”. For the same molecule, in test [6], the inhibition came to 5.4%. For the same molecule, the IC50 on Mu-type opioid receptor [2] was found to be 2.3 µM.
For `N[C@@H](Cc1ccc(O)cc1)C(=O)N1C[C@@H]2C[C@H]1C(=O)N[C@H](Cc1ccccc1)C(=O)N[C@@H](Cc1ccccc1)C(=O)N2`, the Ki is 0.038 µM at Mu-type opioid receptor [1], greater than 10 µM in test [3] (read-out: Ki) and 0.86 µM in test [4] (read-out: Ki). Besides, the IC50 is 0.33 µM at Mu-type opioid receptor [2] and 0.95 µM in test [5].
As for `Br.N[C@H]1C[C@@H](C(=O)N[C@H](Cc2ccccc2)C(=O)N[C@H](Cc2ccccc2)C(=O)O)N(C(=O)[C@@H](N)Cc2ccc(O)cc2)C1`, the Ki at Mu-type opioid receptor [1] was greater than 10 µM; in test [3] (cho), “Not Active”; in test [4] (read-out: Ki) it was greater than 10 µM. Moreover, the values for the inhibition in test [6] and in test [7] were 3.6% and 2%, respectively.
